Source: the supplement of paper PMC10627819

Tests used:
[1] = tested on: S. aureus DSM 20231; test: fitness (endpoint OD595 vs no drug) (fraction); higher = more growth
Summary of the method: (§1)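 Bacterial growth was followed in 384-well plates seeded at OD595 0.01, with 30 µl per well, or 55 µl for S. pneumoniae, in TSB, LB Lennox or CY at 37 °C. OD595 was read every 30 min for 14 h, and each reading had the first reading subtracted as background. Fitness is the background-corrected optical density at entry into stationary phase divided by the robust mean of the no-drug control wells. This ratio is capped at 1.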

[2] = tested on: S. pneumoniae D39V; test: as above
Summary of the method: as §1

[3] = first compound 250 µg/mL, partner 1.25 µg/mL
[4] = first compound 250 µg/mL, partner 2.5 µg/mL
[5] = first compound 250 µg/mL, partner 5 µg/mL
[6] = first compound 500 µg/mL, partner 1.25 µg/mL
[7] = first compound 500 µg/mL, partner 2.5 µg/mL
[8] = first compound 500 µg/mL, partner 5 µg/mL
[9] = first compound 250 µg/mL, partner 1.5 µg/mL
[10] = first compound 500 µg/mL, partner 1.5 µg/mL
[11] = first compound 1000 µg/mL, partner 1.5 µg/mL
[12] = first compound 250 µg/mL, partner 1 µg/mL
[13] = first compound 250 µg/mL, partner 2 µg/mL
[14] = first compound 250 µg/mL, partner 4 µg/mL
[15] = first compound 500 µg/mL, partner 1 µg/mL
[16] = first compound 500 µg/mL, partner 2 µg/mL
[17] = first compound 500 µg/mL, partner 4 µg/mL
[18] = first compound 1000 µg/mL, partner 1 µg/mL
[19] = first compound 1000 µg/mL, partner 2 µg/mL
[20] = first compound 1000 µg/mL, partner 4 µg/mL
[21] = first compound 250 µg/mL, partner 0.012 µg/mL
[22] = first compound 500 µg/mL, partner 0.012 µg/mL
[23] = first compound 500 µg/mL, partner 0.024 µg/mL
[24] = first compound 500 µg/mL, partner 0.048 µg/mL
[25] = first compound 1000 µg/mL, partner 0.012 µg/mL
[26] = first compound 1000 µg/mL, partner 0.024 µg/mL
[27] = first compound 1000 µg/mL, partner 0.048 µg/mL
[28] = first compound 250 µg/mL, partner 0.375 µg/mL
[29] = first compound 250 µg/mL, partner 0.75 µg/mL

`CC(=O)Oc1ccccc1C(=O)O` [Acetylsalicylic acid] + C[n+]1ccc(-c2cc[n+](C)cc2)cc1 [Paraquat] was tested, and the fitness [1, 3] was 0.877, the fitness [1, 4] was 0.868 and the fitness [1, 5] was 0.861. It also gave a fitness [1, 6] of 0.823, a fitness [1, 7] of 0.807 and a fitness [1, 8] of 0.774. For the same compound, the fitness [2, 9] was 0.972, the fitness ([2]; first compound 250 µg/mL, partner 3 µg/mL) was 0.954 and the fitness ([2]; first compound 250 µg/mL, partner 6 µg/mL) was 0.934. The fitness [2, 10] was 0.969, the fitness ([2]; first compound 500 µg/mL, partner 3 µg/mL) was 0.938 and the fitness ([2]; first compound 500 µg/mL, partner 6 µg/mL) was 0.872. For the same compound, the fitness [2, 11] was 0.916, the fitness ([2]; first compound 1000 µg/mL, partner 3 µg/mL) was 0.873 and the fitness ([2]; first compound 1000 µg/mL, partner 6 µg/mL) was 0.772.
In the case of `CC(=O)Oc1ccccc1C(=O)O` [Acetylsalicylic acid] + CN1C2=CC=CC=C2N=C3C1=CC=CC3=O [Pyocyanin], the fitness [1, 3] is reported as 0.826, the fitness [1, 4] is reported as 0.751 and the fitness [1, 5] is reported as 0.611. The fitness [1, 6] was 0.679, the fitness [1, 7] was 0.607 and the fitness [1, 8] was 0.551. It also gave a fitness ([1]; first compound 1000 µg/mL, partner 1.25 µg/mL) of 0.525, a fitness ([1]; first compound 1000 µg/mL, partner 2.5 µg/mL) of 0.437 and a fitness ([1]; first compound 1000 µg/mL, partner 5 µg/mL) of 0.268. The fitness ([2]; first compound 250 µg/mL, partner 0.325 µg/mL) was no less than 1, the fitness ([2]; first compound 250 µg/mL, partner 0.65 µg/mL) was 1 and the fitness ([2]; first compound 250 µg/mL, partner 1.3 µg/mL) was 0.863. The fitness ([2]; first compound 500 µg/mL, partner 0.325 µg/mL) was 0.995, the fitness ([2]; first compound 500 µg/mL, partner 0.65 µg/mL) was 0.98 and the fitness ([2]; first compound 500 µg/mL, partner 1.3 µg/mL) was 0.722. For the same compound, the fitness ([2]; first compound 1000 µg/mL, partner 0.325 µg/mL) was 0.917, the fitness ([2]; first compound 1000 µg/mL, partner 0.65 µg/mL) was 0.681 and the fitness ([2]; first compound 1000 µg/mL, partner 1.3 µg/mL) was 0.467.
With `CC(=O)Oc1ccccc1C(=O)O` [Acetylsalicylic acid] + CN(N=O)C(=O)N[C@@H](C=O)[C@@H](O)[C@H](O)[C@H](O)CO [Streptozotocin] the fitness ([1]; first compound 250 µg/mL, partner 0.15 µg/mL) was 0.778, the fitness ([1]; first compound 250 µg/mL, partner 0.3 µg/mL) was 0.771 and the fitness ([1]; first compound 250 µg/mL, partner 0.6 µg/mL) was 0.64. It also gave a fitness ([1]; first compound 500 µg/mL, partner 0.15 µg/mL) of 0.635, a fitness ([1]; first compound 500 µg/mL, partner 0.3 µg/mL) of 0.584 and a fitness ([1]; first compound 500 µg/mL, partner 0.6 µg/mL) of 0.578. It also gave a fitness ([1]; first compound 1000 µg/mL, partner 0.3 µg/mL) of 0.484, a fitness ([1]; first compound 1000 µg/mL, partner 0.6 µg/mL) of 0.414 and a fitness ([2]; first compound 250 µg/mL, partner 1.2 µg/mL) of 0.933. It also gave a fitness ([2]; first compound 250 µg/mL, partner 2.4 µg/mL) of 0.934, a fitness ([2]; first compound 250 µg/mL, partner 4.8 µg/mL) of 0.933 and a fitness ([2]; first compound 500 µg/mL, partner 1.2 µg/mL) of 0.91. The fitness ([2]; first compound 500 µg/mL, partner 2.4 µg/mL) was 0.9 and the fitness ([2]; first compound 500 µg/mL, partner 4.8 µg/mL) was 0.824.
`CC(=O)Oc1ccccc1C(=O)O` [Acetylsalicylic acid] + COc1ccc(C[C@H](N)C(=O)N[C@H]2[C@@H](O)[C@H](n3cnc4c(N(C)C)ncnc43)O[C@@H]2CO)cc1 [Puromycin] gave a fitness ([1]; first compound 250 µg/mL, partner 0.39 µg/mL) of 0.894, a fitness ([1]; first compound 250 µg/mL, partner 0.78 µg/mL) of 0.947 and a fitness ([1]; first compound 250 µg/mL, partner 1.56 µg/mL) of 0.88. It also gave a fitness ([1]; first compound 250 µg/mL, partner 3.12 µg/mL, one replicate) of 0.84, a fitness ([1]; first compound 250 µg/mL, partner 6.24 µg/mL, one replicate) of 0.821 and a fitness ([1]; first compound 500 µg/mL, partner 0.39 µg/mL) of 0.804. The fitness ([1]; first compound 500 µg/mL, partner 0.78 µg/mL) was 0.768, the fitness ([1]; first compound 500 µg/mL, partner 1.56 µg/mL) was 0.799 and the fitness ([1]; first compound 500 µg/mL, partner 3.12 µg/mL, one replicate) was 0.791. For the same compound, the fitness ([1]; first compound 500 µg/mL, partner 6.24 µg/mL, one replicate) was 0.767, the fitness ([1]; first compound 1000 µg/mL, partner 3.12 µg/mL, one replicate) was 0.0591 and the fitness ([1]; first compound 1000 µg/mL, partner 6.24 µg/mL, one replicate) was 0.0807. The fitness [2, 12] was no less than 1, the fitness [2, 13] was 0.954 and the fitness [2, 14] was 0.898. For the same compound, the fitness [2, 15] was 0.915, the fitness [2, 16] was 0.935 and the fitness [2, 17] was 0.836. For the same compound, the fitness [2, 18] was 0.889, the fitness [2, 19] was 0.815 and the fitness [2, 20] was 0.622.
`CC(=O)Oc1ccccc1C(=O)O` [Acetylsalicylic acid] + Cc1cc(NS(=O)(=O)c2ccc(N)cc2)no1 [Sulfamethoxazol] was tested, and the fitness [1, 12] was 0.862, the fitness [1, 13] was 0.855 and the fitness [1, 14] was 0.844. For the same compound, the fitness [1, 15] was 0.683, the fitness [1, 18] was 0.53 and the fitness [1, 19] was 0.522. It also gave a fitness [2, 12] of 0.941, a fitness [2, 13] of 0.946 and a fitness [2, 14] of 0.909. For the same compound, the fitness [2, 15] was 0.905, the fitness [2, 16] was 0.926 and the fitness [2, 17] was 0.872. It also gave a fitness [2, 18] of 0.78, a fitness [2, 19] of 0.811 and a fitness [2, 20] of 0.842.
`CC(=O)Oc1ccccc1C(=O)O` [Acetylsalicylic acid] + CN(C)[C@@H]1C(O)=C(C(N)=O)C(=O)[C@@]2(O)C(O)=C3C(=O)c4c(O)ccc(Cl)c4[C@@](C)(O)[C@H]3C[C@@H]12 [Chlortetracycline] showed a fitness ([1]; first compound 250 µg/mL, partner 0.006 µg/mL, one replicate) of 0.686, a fitness [1, 21] of 0.525 and a fitness ([1]; first compound 500 µg/mL, partner 0.006 µg/mL, one replicate) of 0.525. The fitness [1, 22] was 0.467, the fitness [1, 23] was 0.221 and the fitness [1, 24] was 0.0964. The fitness ([1]; first compound 1000 µg/mL, partner 0.006 µg/mL, one replicate) was 0.342, the fitness [1, 25] was 0.21 and the fitness [1, 26] was 0.0899. The fitness [1, 27] was 0.0347, the fitness [2, 21] was 0.842 and the fitness ([2]; first compound 250 µg/mL, partner 0.024 µg/mL) was 0.658. For the same compound, the fitness ([2]; first compound 250 µg/mL, partner 0.048 µg/mL) was 0.322, the fitness [2, 28] was 0.123 and the fitness [2, 29] was 0.119. For the same compound, the fitness [2, 9] was 0.101, the fitness [2, 22] was 0.831 and the fitness [2, 23] was 0.606. For the same compound, the fitness [2, 24] was 0.281, the fitness ([2]; first compound 500 µg/mL, partner 0.375 µg/mL) was 0.129 and the fitness ([2]; first compound 500 µg/mL, partner 0.75 µg/mL) was 0.0804. It also gave a fitness [2, 10] of 0.138, a fitness [2, 25] of 0.669 and a fitness [2, 26] of 0.47. The fitness [2, 27] was 0.297, the fitness ([2]; first compound 1000 µg/mL, partner 0.375 µg/mL) was 0.0772 and the fitness ([2]; first compound 1000 µg/mL, partner 0.75 µg/mL) was 0.0378. It also gave a fitness [2, 11] of 0.0721.
`CC(=O)Oc1ccccc1C(=O)O` [Acetylsalicylic acid] + N[C@@H]1CONC1=O [Cycloserine D] showed a fitness [1, 28] of 0.96, a fitness [1, 29] of 0.953 and a fitness [1, 9] of 0.93.
